Experimental data taken from PMC3722588 (Journal of the American Chemical Society, 2013).

Molecular target: T184C MMP12 catalytic domain (Mus musculus, UniProt P34960, T184C)
Experiment: Gel labeling of recombinant enzyme spiked in rat liver lysates
Format: binding
Settings: 10 μM pretreatment before TND124, rat liver lysates

T184C MMP12 catalytic domain, sequence (P34960 29-267 T184C): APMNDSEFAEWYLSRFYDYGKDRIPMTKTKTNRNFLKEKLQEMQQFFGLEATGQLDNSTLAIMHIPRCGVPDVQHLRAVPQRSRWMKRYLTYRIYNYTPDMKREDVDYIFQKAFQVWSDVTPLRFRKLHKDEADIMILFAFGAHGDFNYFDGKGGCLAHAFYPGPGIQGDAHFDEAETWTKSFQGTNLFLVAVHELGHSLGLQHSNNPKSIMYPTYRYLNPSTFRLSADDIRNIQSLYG

CNC(=O)[C@H](Cc1c[nH]c2ccccc12)NC(=O)[C@@H](CC(=O)NO)CC(C)C [GM6001]
Blocking of TND124 labeling by pretreatment: completely blocked labeling
